Data taken from patent publication US20160175318A1, “COMPOSITIONS COMPRISING ANTIBACTERIAL AGENT AND TAZOBACTAM” (WOCKHARDT LIMITED, priority 2013, published 2016).
Read-outs that look alike come from different tables or passages of the source. Values belong to the compound of their own block, whether it stands above or below them.

Assays:
Format in all cases: cell-based
[1] = system: E. cloacae M-20; assay: MIC by agar dilution (CLSI) against highly resistant ESBL strain
Experimental: (§1) The results on activity of cefepime and other cephalosporin antibacterial agents in combination with tazobactam against highly resistant ESBL strains are given Table 1. In a typical study, overnight grown bacterial cultures were diluted appropriately and inoculated on the agar media containing doubling dilutions of the antibiotic. Observation for growth or no growth was performed after 16-20 h of incubation at 35±2° C. in ambient air. The overall procedure was performed as per Clinical and Laboratory Standards Institute (CLSI) recommendations. This experimental was followed for Examples 2-4 and 6 below (Table 2-4 and 7).

[2] = system: E. coli 7MP; assay: as above
Experimental: as §1

[3] = system: E. coli B-89; assay: as above
Experimental: as §1

[4] = system: E. coli B123; assay: as above; settings: for Activity (MIC, method of Example 1), Table 7: E. coli B-123
Experimental: as §1

[5] = system: E. coli M50; assay: as above
Experimental: as §1

[6] = system: E. coli 7MP; assay: Quantitative drug diffusion assay (disc, zone of inhibition, CLSI); set-up: key to Interpretation of zone as per CLSI recommendations: R: Resistant; I: Intermediate; S: Sensitive (Interpretation as per CLSI recommendations, 2010)
Text: (§2) Activity of cefepime in combination with tazobactam and various penicillins in combination with respective ESBL inhibitors was also investigated against highly resistant ESBL strains in quantitative drug diffusion assay performed as per CLSI recommendations (Clinical and Laboratory Standards Institute (CLSI), performance Standards for Antimicrobial Susceptibility Testing, 20th Informational Supplement, M 100-S20, Volume 30, No. 1, 2010).
(§3) In a typical study, overnight grown bacterial cultures after appropriate dilution were seed inoculated in the molten, cooled agar media and plates poured. Antibiotics containing 6 mm diameter discs were place on the top of the agar surface. Zone of inhibition based observation was performed after 16-18 h of incubation at 35±2° C. in ambient air. The overall procedure was performed as per CLSI recommendations (Table 5 and 6). These assays are routinely used in determining possibility of treating a particular infection using antibiotic and/or their combinations. For example, in case of treating an infection caused by E. coli (M138) using Augmentin® [commercially available combination: Amoxicillin (500 mg)+Clavulanic acid (125 mg)], the zone inhibition values need to be in the sensitive (S) range.

[7] = system: E. coli B-123; assay: as above; set-up: key to Interpretation of zone as per CLSI recommendations: R: Resistant; I: Intermediate; S: Sensitive (Interpretation as per CLSI recommendations, 2010)
Text: as §2, §3

[8] = system: E. coli B-89; assay: as above; set-up: key to Interpretation of zone as per CLSI recommendations: R: Resistant; I: Intermediate; S: Sensitive (Interpretation as per CLSI recommendations, 2010)
Text: as §2, §3

[9] = system: E. coli M-138; assay: as above; set-up: key to Interpretation of zone as per CLSI recommendations: R: Resistant; I: Intermediate; S: Sensitive (Interpretation as per CLSI recommendations, 2010)
Text: as §2, §3

[10] = system: E. coli M50; assay: as above; set-up: key to Interpretation of zone as per CLSI recommendations: R: Resistant; I: Intermediate; S: Sensitive (Interpretation as per CLSI recommendations, 2010)
Text: as §2, §3

[11] = system: E. coli S-112; assay: as above; set-up: key to Interpretation of zone as per CLSI recommendations: R: Resistant; I: Intermediate; S: Sensitive (Interpretation as per CLSI recommendations, 2010)
Text: as §2, §3

[12] = E. cloacae M-20, with Tazobactam 4 mcg
[13] = E. cloacae M-20, with Tazobactam 8 mcg
[14] = Enterobacter cloacae, M20, 20 h, E. cloacae M-20, Tazobactam 0 mcg (antibiotic alone), read-out: MIC
[15] = E. coli 7MP, with Tazobactam 4 mcg
[16] = E. coli 7MP, with Tazobactam 8 mcg
[17] = Escherichia coli, 7MP, 20 h, E. coli 7MP, Tazobactam 0 mcg (antibiotic alone), read-out: MIC
[18] = E. coli B-89, with Tazobactam 4 mcg
[19] = E. coli B-89, with Tazobactam 8 mcg
[20] = Escherichia coli, B89, 20 h, E. coli B-89, Tazobactam 0 mcg (antibiotic alone), read-out: MIC
[21] = Escherichia coli, B123, E. coli B123, Tazobactam 0 mcg (antibiotic alone), read-out: MIC
[22] = Escherichia coli, B123, E. coli B123, with Tazobactam 4 mcg, read-out: MIC
[23] = Escherichia coli, B123, E. coli B123, with Tazobactam 8 mcg, read-out: MIC
[24] = Escherichia coli, 20 h, Tazobactam 0 mcg (antibiotic alone), read-out: MIC
[25] = ESBL inhibitor 0 mcg (antibiotic alone)
[26] = Table 6, with Tazobactam 10 mcg
[27] = Enterobacter cloacae, M20, 20 h
[28] = Escherichia coli, M50, 20 h, Tazobactam 0 mcg (antibiotic alone)

Activity (MIC, method of Example 1), Table 7 ([1]; E. cloacae M-20, antibiotic alone): > 64 µg/mL | Activity (MIC, method of Example 1), Table 7 ([1]; E. cloacae M-20, with Clavulanic acid 4 mcg): 16 µg/mL | Activity (MIC, method of Example 1), Table 7 ([1]; E. cloacae M-20, with Clavulanic acid 8 mcg): 8 µg/mL | Activity (MIC, method of Example 1), Table 7 ([1]; E. cloacae M-20, with Sulbactam 4 mcg): 32 µg/mL | Activity (MIC, method of Example 1), Table 7 ([1]; E. cloacae M-20, with Sulbactam 8 mcg): 16 µg/mL | Activity (MIC, method of Example 1), Table 7 [1, 12]: 8 µg/mL | MIC [1, 12]: 8 µg/mL | MIC [1, 13]: 4 µg/mL | Activity (MIC, method of Example 1), Table 7 ([1]; E. cloacae M-20, with Tazobactam, (4 mcg)): 4 µg/mL | MIC [1, 14]: > 64 µg/mL | Activity (MIC, method of Example 1), Table 7 ([2]; E. coli 7MP, antibiotic alone): > 64 µg/mL | Activity (MIC, method of Example 1), Table 7 ([2]; E. coli 7MP, with Clavulanic acid 4 mcg): 16 µg/mL | Activity (MIC, method of Example 1), Table 7 ([2]; E. coli 7MP, with Clavulanic acid 8 mcg): 8 µg/mL | Activity (MIC, method of Example 1), Table 7 ([2]; E. coli 7MP, with Sulbactam 4 mcg): 16 µg/mL | Activity (MIC, method of Example 1), Table 7 ([2]; E. coli 7MP, with Sulbactam 8 mcg): 16 µg/mL | Activity (MIC, method of Example 1), Table 7 [2, 15]: 8 µg/mL | MIC [2, 15]: 8 µg/mL | MIC [2, 16]: 4 µg/mL | Activity (MIC, method of Example 1), Table 7 ([2]; E. coli 7MP, with Tazobactam, (4 mcg)): 4 µg/mL | MIC [2, 17]: > 64 µg/mL | MIC [3, 18]: 4 µg/mL | MIC [3, 19]: 2 µg/mL | MIC [3, 20]: > 64 µg/mL | Activity (MIC, method of Example 1), Table 7 ([4]; antibiotic alone): > 64 µg/mL | Activity (MIC, method of Example 1), Table 7 ([4]; with Clavulanic acid 4 mcg): 16 µg/mL | Activity (MIC, method of Example 1), Table 7 ([4]; with Clavulanic acid 8 mcg): 8 µg/mL | Activity (MIC, method of Example 1), Table 7 ([4]; with Sulbactam 4 mcg): 8 µg/mL | Activity (MIC, method of Example 1), Table 7 ([4]; with Sulbactam 8 mcg): 16 µg/mL | Activity (MIC, method of Example 1), Table 7 ([4]; with Tazobactam 4 mcg): 4 µg/mL | Activity (MIC, method of Example 1), Table 7 ([4]; with Tazobactam, (4 mcg)): 2 µg/mL | MIC [4, 21]: > 64 µg/mL | MIC [4, 22]: 4 µg/mL | MIC [4, 23]: 2 µg/mL | MIC [5, 24]: > 64 µg/mL | MIC ([5]; with Tazobactam 4 mcg): 2 µg/mL | MIC ([5]; with Tazobactam 8 mcg): 2 µg/mL
SMILES: CO/N=C(\C(=O)N[C@@H]1C(=O)N2C(C(=O)[O-])=C(C[n+]3cccc4c3CCC4)CS[C@H]12)c1csc(N)n1 [Cefpirome]
Zone of Inhibition [6, 25]: 11 mm | Interpretation of zone as per CLSI recommendations ([6]; Table 6, ESBL inhibitor 0 mcg): (R) | Interpretation of zone as per CLSI recommendations [6, 26]: (S) | Zone of Inhibition ([6]; with Tazobactam 10 mcg): 18.5 mm | Zone of Inhibition [7, 25]: 8 mm | Interpretation of zone as per CLSI recommendations ([7]; Table 6, ESBL inhibitor 0 mcg): (R) | Interpretation of zone as per CLSI recommendations [7, 26]: (S) | Zone of Inhibition ([7]; with Tazobactam 10 mcg): 20 mm | Zone of Inhibition [8, 25]: Nil | Interpretation of zone as per CLSI recommendations ([8]; Table 6, ESBL inhibitor 0 mcg): (R) | Interpretation of zone as per CLSI recommendations [8, 26]: (S) | Zone of Inhibition ([8]; with Tazobactam 10 mcg): 17.5 mm | Zone of Inhibition [9, 25]: Nil | Interpretation of zone as per CLSI recommendations ([9]; Table 6, ESBL inhibitor 0 mcg): (R) | Interpretation of zone as per CLSI recommendations [9, 26]: (S) | Zone of Inhibition ([9]; with Tazobactam 10 mcg): 21 mm | Zone of Inhibition [10, 25]: Nil | Interpretation of zone as per CLSI recommendations ([10]; Table 6, ESBL inhibitor 0 mcg): (R) | Interpretation of zone as per CLSI recommendations [10, 26]: (S) | Zone of Inhibition ([10]; with Tazobactam 10 mcg): 22 mm | Zone of Inhibition [11, 25]: 15 mm | Interpretation of zone as per CLSI recommendations ([11]; Table 6, ESBL inhibitor 0 mcg): (I) | Interpretation of zone as per CLSI recommendations [11, 26]: (S) | Zone of Inhibition ([11]; with Tazobactam 10 mcg): 20 mm

MIC [1, 12]: >64 µg/mL | MIC [1, 13]: >64 µg/mL | MIC [1, 14]: > 128 µg/mL | MIC [2, 15]: >64 µg/mL | MIC [2, 16]: >64 µg/mL | MIC [2, 17]: > 128 µg/mL | MIC [3, 18]: >64 µg/mL | MIC [3, 19]: >64 µg/mL | MIC [3, 20]: > 128 µg/mL | MIC [4, 21]: > 128 µg/mL | MIC [4, 22]: > 64 µg/mL | MIC [4, 23]: > 64 µg/mL | MIC [5, 24]: > 128 µg/mL | MIC ([5]; with Tazobactam 4 mcg): >64 µg/mL | MIC ([5]; with Tazobactam 8 mcg): >64 µg/mL
SMILES: COCC1=C(C(=O)O)N2C(=O)[C@@H](NC(=O)/C(=N\OC)c3csc(N)n3)[C@H]2SC1 [Cefpodoxime]

SMILES: CC(C)(O/N=C(\C(=O)N[C@@H]1C(=O)N2C(C(=O)[O-])=C(C[n+]3ccccc3)CS[C@H]12)c1csc(N)n1)C(=O)O [Ceftazidime]
MIC [1, 12]: >64 µg/mL | MIC [1, 13]: 64 µg/mL | MIC [1, 27]: > 128 µg/mL | MIC [2, 15]: >64 µg/mL | MIC [2, 16]: >64 µg/mL | MIC ([2]; Escherichia coli, 7MP, 20 h): > 128 µg/mL | MIC [3, 18]: >64 µg/mL | MIC [3, 19]: 64 µg/mL | MIC ([3]; Escherichia coli, B89, 20 h): > 128 µg/mL | MIC ([4]; Escherichia coli, B123): > 128 µg/mL | MIC [4, 22]: > 64 µg/mL | MIC [4, 23]: > 64 µg/mL | MIC [5, 28]: > 128 µg/mL | MIC ([5]; with Tazobactam 4 mcg): >64 µg/mL | MIC ([5]; with Tazobactam 8 mcg): >64 µg/mL

SMILES: CO/N=C(\C(=O)N[C@@H]1C(=O)N2C(C(=O)O)=C(CSc3nc(=O)c(=O)[nH]n3C)CS[C@H]12)c1csc(N)n1 [Ceftriaxone]
MIC [1, 12]: >64 µg/mL | MIC [1, 13]: >64 µg/mL | MIC [1, 27]: > 128 µg/mL | MIC ([2]; E. coli 7MP, Tazobactam 0 mcg (antibiotic alone)): >128 µg/mL | MIC [2, 15]: >64 µg/mL | MIC [2, 16]: >64 µg/mL | MIC ([2]; Escherichia coli, 7MP, 20 h): > 128 µg/mL | MIC ([3]; E. coli B-89, Tazobactam 0 mcg (antibiotic alone)): >128 µg/mL | MIC [3, 18]: >64 µg/mL | MIC [3, 19]: >64 µg/mL | MIC ([3]; Escherichia coli, B89, 20 h): > 128 µg/mL | MIC ([4]; E. coli B123, Tazobactam 0 mcg (antibiotic alone)): >128 µg/mL | MIC ([4]; E. coli B123, with Tazobactam 4 mcg): >64 µg/mL | MIC ([4]; E. coli B123, with Tazobactam 8 mcg): >64 µg/mL | MIC ([4]; Escherichia coli, B123): > 128 µg/mL | MIC [4, 22]: > 64 µg/mL | MIC [4, 23]: > 64 µg/mL | MIC [5, 28]: 128 µg/mL | MIC ([5]; with Tazobactam 8 mcg): 64 µg/mL
